Experiments:
Type in all cases: cell-based
[1] = tested on: Co-cultivation of A. fumigatus + C. albicans (MYA3626 + ATCC 90028); assay: Broth microdilution MIC assay against co-culture of fungal spores; conditions: Aspergillus fumigatus + Candida albicans co-culture; repeated MIC study (Table 4), agent alone; listed as Itraconazone
Procedure: Broth Microdilution Minimal Inhibitory Concentration (MIC) assays were performed to obtain the MIC values for Itraconazole and Ketoconazole with an antibiotic (Vancomycin or Tobramycin or Amikacin) against the two fungal strains.
The strains were maintained as a frozen glycerol stocks at −80° C. The fungal strains were prepared by thawing a glycerol stock, streaking and growing onto Sabouraud's Dextrose Agar (SDA) plates, overnight at 35±2° C. in aerobic conditions and used for the assay.
Antifungal agents: Itraconazole (Cat #16657, Lot #087K1322), Ketoconazole (Cat # K1003, Lot # SLBR1290V). Stocks were prepared in appropriate solvents following the CLSI guidelines. See, for example, Reference method for broth dilution antifungal susceptibility testing of filamentous fungi, approved standard, 2nd ed. CLSI document M38-A2, vol. 28. CLSI, Wayne, Pa. (2008).
The completely synthetic medium RPMI-1640 (with glutamine, without bicarbonate, and with phenol red as a pH indicator) was buffered with 0.165 mol/L MOPS (3-[N-morpholino] propanesulfonic acid) buffer was used as the growth medium for the fungal strains. Overnight cultures of the fungal strains were grown on Difco™ Sabouraud's Dextrose Agar (SDA) plates at 35° C. To induce conidium and sporangiospore formation, the culture plates were transferred to incubator and grown for 5-7 days 30° C. or until good sporulation was obtained. […]

[2] = tested on: Aspergillus fumigatus+Candida albicans co-culture; assay: Checkerboard synergy assay, co-culture (FIG. 7, Table 4); conditions: combination of Aspergillus fumigatus and Candida albicans; read-out: MIC (agent alone, read from checkerboard FIG. 7)
Procedure: This study evaluated the synergistic activity of 2 antifungal agents (Itraconazole and Ketoconazole) with an antibiotic (Vancomycin or Tobramycin or Amikacin) against the spores of 2 fungi; Aspergillus fumigatus MYA3626 and Candida albicans ATCC 90028; individually as well as in co-cultivation (Aspergillus fumigatus+Candida albicans). Synergy testing was carried out as per checkerboard assay by Victor Lorian methodology. See, for example, Lorian, V. Antibiotics in Laboratory Medicine. Edition 5: (2005).
In vitro activity of the test articles were tested in combination by the Checkerboard assay. See, for example, Lorian, V. Antibiotics in Laboratory Medicine. Edition 5: (2005). The assay was carried out in duplicates. The starting concentrations for the test articles was determined as per the MIC data. Two-fold serial dilutions of 8×MIC for the antifungal agents; Itraconazole and Ketoconazole was performed separately. When Itraconazole and Ketoconazole were combined in a microtiter plate, the concentration of both agents was 2×MIC. […] The plates were incubated at 35° C. for 3-5 days. The assay plates were visually inspected to confirm the MIC endpoint and used to calculate the Fractional Inhibitory Concentration (FIC) Index to determine any synergistic interaction.
The FIC Index was calculated as follows: […]

Candida albicans = assay: Culture sensitivity, Patient 7 isolate; conditions: Patient 7 Candida albicans culture
From the text: (§1) The patient underwent the standard workup for CRS, sleep disorder, and nasal obstruction, plus our diagnostic skin test and sinus CT scan.

S. aureus, a bacteria = assay: Culture sensitivity, Patient 7 isolate; conditions: Patient 7 bacterial culture
From the text: as §1

| SMILES | MIC [1] [µg/mL] | MIC [2] [µg/mL] | Culture sensitivity (Candida albicans) | Culture sensitivity (S. aureus, a bacteria) |
| --- | --- | --- | --- | --- |
| CCC(C)n1ncn(-c2ccc(N3CCN(c4ccc(OCC5COC(Cn6cncn6)(c6ccc(Cl)cc6Cl)O5)cc4)CC3)cc2)c1=O (centres unmarked) [Itraconazole] | 1 | > 0.5 |  |  |
| CC(=O)N1CCN(c2ccc(OCC3COC(Cn4ccnc4)(c4ccc(Cl)cc4Cl)O3)cc2)CC1 (centres unmarked) [Ketoconazole] |  | > 4 | sensitive |  |
| NC[C@H]1O[C@H](O[C@H]2[C@H](O)[C@@H](O[C@H]3O[C@H](CO)[C@@H](O)[C@H](N)[C@H]3O)[C@H](N)C[C@@H]2N)[C@H](N)C[C@@H]1O [tobramycin] |  |  |  | sensitive |

— patent US20180050034A1, “ANTIFUNGAL TREATMENT OF CROHN'S DISEASE” (Gerbe Labs Inc., priority 2016, published 2018)
